According to patent publication US8058242B2, “Chimeric proteins with natriuretic activity” (The University of Queensland, priority 2004, dated 2011):

Tests used:
[1] = tested on: endothelium-intact aortic rings (NPR-C mediated); test: Aortic ring relaxation, endothelium-intact rings pre-contracted with 40 mM KCl (Example 3); parameters: species or system rat; details: for competitive inhibition of the binding of TNPc: endothelium-intact aortic rings, TNPa or TNPb followed by TNPc 0.1 μM; for percentage relaxation of the precontraction by KCl: endothelium-intact rat aortas pre-contracted with 40 mM KCl, peptide 0.1 μM
Description: (§1) Male Sprague Dawley rats were killed and the descending thoracic aorta rapidly removed and flushed with physiological solution. After being cleared of adhering fat and connective tissue, 5 mm rings were mounted under 10 g resting tension, between two stainless steel hooks, in organ baths (37° C.) containing carbogenated (95% O2 and 5% CO2) physiological salt solution of the following composition (mM): NaCl, 118.4; NaHCO3, 25; glucose, 11; KCl, 4.7; MgSO4, 1.2; KH2PO4, 1.2 and CaCl2, 2.5. The lower hook was attached to a tissue holder and the upper hook to a force displacement transducer (Grass FTO3). Where indicated endothelial cells were removed by gentle rubbing of the intimal surface with a wire. To confirm the presence or absence of endothelial cells, tissues were precontracted with a sub-maximal concentration of phenylephrine (0.3 μM) and the response to acetylcholine (ACh, 10 μM) observed. Ach-induced relaxation greater than 80% of maximum indicated the presence of endothelium; whereas Ach-induced relaxation less than 10% indicated the absence of endothelium. Ring preparations under resting tension were conditioned by two contraction/relaxation cycles with 40 mM KCl, contracted by a third application of 40 mM KCl and then relaxed with different doses of the venom peptides. Responses were expressed as a percentage relaxation of the precontraction by KCl.

rat GC-A = target: T1, rat GC-A (Rattus norvegicus, UniProt P18910); test: Cell cyclic GMP elevations in HEK-293 cells stably expressing rat GC-A (Example 4); assay type: cell-based; details: 0.1 μM; 293 cells over-expressing GC-A
T1 construct: expressed in transfected cells
T1 sequence (P18910 29-1057): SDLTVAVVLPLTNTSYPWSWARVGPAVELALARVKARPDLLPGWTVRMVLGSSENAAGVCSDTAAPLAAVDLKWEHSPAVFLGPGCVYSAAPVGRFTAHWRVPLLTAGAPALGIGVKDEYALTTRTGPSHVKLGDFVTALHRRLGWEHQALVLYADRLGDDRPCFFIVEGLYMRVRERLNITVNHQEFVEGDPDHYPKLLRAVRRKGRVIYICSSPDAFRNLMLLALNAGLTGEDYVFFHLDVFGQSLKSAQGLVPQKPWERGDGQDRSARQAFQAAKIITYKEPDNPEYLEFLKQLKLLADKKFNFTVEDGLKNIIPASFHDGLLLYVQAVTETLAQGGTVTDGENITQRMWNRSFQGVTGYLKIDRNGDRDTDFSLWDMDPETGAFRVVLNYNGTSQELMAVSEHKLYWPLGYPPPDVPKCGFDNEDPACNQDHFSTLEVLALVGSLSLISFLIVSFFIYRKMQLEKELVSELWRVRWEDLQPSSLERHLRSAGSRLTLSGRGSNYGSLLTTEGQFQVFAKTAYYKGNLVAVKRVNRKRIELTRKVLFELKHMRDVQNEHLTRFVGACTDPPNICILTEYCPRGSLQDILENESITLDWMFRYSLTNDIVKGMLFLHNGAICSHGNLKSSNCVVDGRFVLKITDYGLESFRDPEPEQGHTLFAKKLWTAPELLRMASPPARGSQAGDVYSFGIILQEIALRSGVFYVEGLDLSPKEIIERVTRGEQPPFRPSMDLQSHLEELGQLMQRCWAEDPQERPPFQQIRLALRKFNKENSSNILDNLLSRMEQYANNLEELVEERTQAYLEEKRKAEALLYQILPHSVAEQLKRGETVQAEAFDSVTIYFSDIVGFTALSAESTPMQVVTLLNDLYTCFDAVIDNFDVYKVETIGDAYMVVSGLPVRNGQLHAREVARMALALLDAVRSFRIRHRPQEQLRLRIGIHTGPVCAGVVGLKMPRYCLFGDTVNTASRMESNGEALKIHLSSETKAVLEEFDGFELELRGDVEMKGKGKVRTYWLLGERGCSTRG
Source text: The human embryonic kidney 293 (HEK-293) cell line was used for the stable expression of rat GC-A (GC-A/293). Cells expressing rat GC-A (GC-A/293) in the HEK-293 cell line were as previously described (Potter L. R., and Garbers D. L., (1992), J Biol Chem. 26, 14531-4) and determination of cGMP elevations was undertaken as previously described (Chrisman et al. T. D., Schulz, S., Potter, L. R. and Garbers, D. L., (1993,) J. Biol. Chem. (1993) 268 (5), 3698-3703). Responses were expressed as a percentage of the effect produced by ANP.

[2] = tested on: endothelium-denuded aortic rings (GC-A mediated); test: Aortic ring relaxation, endothelium-denuded rings pre-contracted with 40 mM KCl (Example 3); parameters: species or system rat; details: for competitive inhibition of the binding of TNPc: endothelium-denuded aortic rings, TNPa or TNPb followed by TNPc 0.1 μM; for percentage relaxation of the precontraction by KCl: endothelium-denuded rat aortas pre-contracted with 40 mM KCl, peptide 0.1 μM
Description: as §1

conscious rabbits = test: Blood pressure and heart rate in conscious rabbits, intravenous infusion dose-response (Example 8); details: for Recovery (MAP) / Recovery Delta SED (MAP): after 1 hour recovery period; for Recovery (MAP) / Recovery Delta SED (MAP) / MAP at final dose / Treatment Effect, change of mean blood pressure during the infusion: Table 10A; for MAP at final dose / Treatment Effect, change of mean blood pressure during the infusion: highest dose; for Treatment Effect, change of mean blood pressure during the infusion: groups 1, 2A and 3; for Diastolic BP, mean difference from control / HR, mean difference from control / Mean BP, mean difference from control / Systolic BP, mean difference from control: 45 min
[3] = average of the 3 doses 1.0, 2.0, 4.0 μg/kg/min

Row | Sequence | competitive inhibition of the binding of TNPc [1] | percentage relaxation of the precontraction by KCl [1] | cGMP elevations, percentage of the effect produced by ANP (rat GC-A) | competitive inhibition of the binding of TNPc [2] | percentage relaxation of the precontraction by KCl [2] | Recovery (MAP) (conscious rabbits) | Recovery Delta SED (MAP) (conscious rabbits) | Diastolic BP, Average Response SED (conscious rabbits; [3]) | Mean BP (MAP), Average Response SED (conscious rabbits; [3]) | Systolic BP, Average Response SED (conscious rabbits; [3]) | MAP at final dose (conscious rabbits) | Treatment Effect, change of mean blood pressure during the infusion (conscious rabbits) | Diastolic BP, mean difference from control (conscious rabbits; i.v. infusion 1.0 μg/kg/min) | HR, mean difference from control (conscious rabbits; i.v. infusion 1.0 μg/kg/min) | Mean BP, mean difference from control (conscious rabbits; i.v. infusion 1.0 μg/kg/min) | Systolic BP, mean difference from control (conscious rabbits; i.v. infusion 1.0 μg/kg/min) | Diastolic BP, mean difference from control (conscious rabbits; i.v. infusion 2.0 μg/kg/min) | HR, mean difference from control (conscious rabbits; i.v. infusion 2.0 μg/kg/min) | Mean BP, mean difference from control (conscious rabbits; i.v. infusion 2.0 μg/kg/min) | Systolic BP, mean difference from control (conscious rabbits; i.v. infusion 2.0 μg/kg/min) | other results
1 | SDSKIGDGCFGLPLDHIGSVSGLGCNRPVQNRPKK (A portion of a natriuretic peptide) [TNPa] | lack the ability to competitively inhibit the binding of TNPc | approximately 20% | lesser effects on cGMP elevations | lack the ability to competitively inhibit the binding of TNPc | no relaxation | 65.3 mm Hg | 3.0 ± 2.9 mm Hg | −7.9 ± 0.9 mmHg | −8.7 ± 1.1 mmHg | −5.7 ± 1.3 mmHg | 62.3 mm Hg | −11.6 mm Hg | −6.0 mmHg | −16.1 bpm | −6.4 mmHg | −2.8 mmHg | −7.7 mmHg | −15.9 bpm | −8.0 mmHg | −4.9 mmHg | Diastolic BP, mean difference from control (conscious rabbits; i.v. infusion 4.0 μg/kg/min): −9.9 mmHg; HR, mean difference from control (conscious rabbits; i.v. infusion 4.0 μg/kg/min): −9.8 bpm; Mean BP, mean difference from control (conscious rabbits; i.v. infusion 4.0 μg/kg/min): −11.6 mmHg; Systolic BP, mean difference from control (conscious rabbits; i.v. infusion 4.0 μg/kg/min): −9.4 mmHg
2 | SDPKIGDGCFGLPLDHIGSVSGLGCNRPVQNRPKK (A portion of a natriuretic peptide) [TNPb] | lack the ability to competitively inhibit the binding of TNPc | approximately 20% | lesser effects on cGMP elevations | lack the ability to competitively inhibit the binding of TNPc | no relaxation | 68.2 mm Hg | 3.5 ± 2.3 mm Hg | −7.8 ± 0.9 mmHg | −9.6 ± 1.1 mmHg | −8.9 ± 1.4 mmHg | 64.7 mm Hg | −11.0 mm Hg | −7.0 mmHg | −3.9 bpm | −8.0 mmHg | −7.9 mmHg | −7.9 mmHg | −5.1 bpm | −9.8 mmHg | −8.8 mmHg | HR, Average Response SED (conscious rabbits; [3]): −1.4 ± 3.5 bpm; Diastolic BP, mean difference from control (conscious rabbits; i.v. infusion 4.0 μg/kg/min): −8.6 mmHg; HR, mean difference from control (conscious rabbits; i.v. infusion 4.0 μg/kg/min): 4.7 bpm; Mean BP, mean difference from control (conscious rabbits; i.v. infusion 4.0 μg/kg/min): −11.0 mmHg; Systolic BP, mean difference from control (conscious rabbits; i.v. infusion 4.0 μg/kg/min): −10.0 mmHg
